In patent US11524010B2, “Substituted quinazoline sulfonamides as thioredoxin interacting protein (TXNIP) inhibitors” (SOUTHERN RESEARCH INSTITUTE, priority 2017, dated 2022):

How the values were obtained:
TXNIP = experiment: Inhibition of glucose-induced endogenous TXNIP expression in INS-1 cells (qRT-PCR); format: cell-based, Rat; details: 25 mM glucose; for inhibition at 1.5 µM / inhibition at 12.5 µM: Rattus norvegicus, INS1, 24 h
Procedure: The Rat INS-1 cell line was obtained from UAB and maintained in RPMI-1640 (Invitrogen #11875) supplemented with 10% fetal bovine serum (FBS), 100 U/ml penicillin and […] streptomycin, 10 mM HEPES, 1 mM Sodium Pyruvate, 50 μM 2-Mercaptoethanol, and 11.1 mM Glucose in a humidified incubator with a 5% C02 atmosphere at 37° C. 4×10^4 cells per well were seeded to 96-well plate and incubated at 37° C. overnight. A subset of the cells were then cultured in medium with 5 mM Glucose for 24 hrs and then treated in medium with 25 mM glucose with or without compounds to be tested for another 24 hrs.
For the primary high throughput screening (HTS) assay, stably transfected, monoclonal INS-1 cells were split using Trypsin (2 ml per T75 flask) and seeded at a density of 10^4/well in a 384-well plate and incubated overnight at low, 5 mM glucose. The next day, the medium was changed to high glucose (25 mM) or high glucose plus the small molecules to be tested and luciferase assays were performed 24 h later. […] For secondary screens, total RNA was extracted from 96-well cultured cells using RNeasy 96 kit (Qiagen #74181) following the manufacturer's protocol using spin technology. Then a one-step qRT-PCR amplification was performed using QuantiFast SYBR Green RT-PCR kit (Qiagen #204154) and was carried out in a 10 μl reaction which consisted of 2 μl RNA, 0.5 μM each of primers (Rat TXNIP 5′ primer: […] (SEQ ID NO:1) and Rat TXNIP 3′ primer: […] (SEQ ID NO:2); Or Rat 18S rRNA 5′ primer: […] (SEQ ID NO:3) and Rat 18S rRNA 3′ primer: […]) (SEQ ID NO:4), 5 μl 2×SYBR Green Master Mix, 0.1 μl 10× QuantiFast RT Mix. The SYBR Green assay was performed using a LightCycler 480 II (Roche Applied Science) with an initial incubation at 50° C. for 10 min for RT followed by denaturation at 95° C. for 5 min. Forty cycles of amplification were performed using a thermal cycling profile of 95° C. for 10s, 60° C. for 30 s. Subsequently, a melting curve was recorded by holding at 95° C. for 60 s, cooling to 60° C. for 60 s, and then heating at 0.11° C./s up to 95° C. The data was collected and analyzed using the LightCycler 480 Software Release 1.5.0 SP3. The relative amount of TXNIP mRNA was normalized to 18 s rRNA level as a housekeeping gene, and the data was analyzed according to the 2^−ΔΔCT method (1). The transformed data was expressed as % inhibition and compound IC50 calculated by a 4-parameter logistic fit of the data using GraphPad Prism 7.

[1] = INS-1 cell viability (Cell Titer-Glo, ATP); format: cell-based, Rat; details: rat, INS-1 cells, 72 hrs treatment
Procedure: INS-1 cell viability was determined based on quantification of ATP using Cell Titer-Glo Luminescent Cell Viability Assay kit (Promega #G7572), which indicates the presence of metabolically active cells. Briefly, INS-1 cells were seeded into 96-well plates at a cell density of 4.5×10^4 and 3.5×10^4 cells per well and incubated overnight at 37° C. with 5% CO2. On the following day, cells were treated with compounds for 24 hrs and 72 hrs respectively. Cell Titer-Glo reagent was added to the cells and Luminescence was acquired on Synergy 4 Reader ([…]).

SMILES | inhibition at 1.5 µM (TXNIP; 1.5 μM compound) [%] | inhibition at 12.5 µM (TXNIP; 12.5 μM compound) [%] | CC50 at 72 h [1] [µM] | TXNIP % Inhibition at 1.5 μM (TXNIP; 1.5 μM compound, 24 hrs) [%] | TXNIP % Inhibition at 12.5 μM (TXNIP; 12.5 μM compound, 24 hrs) [%]
CS(=O)(=O)NCC1CCCN(c2ncnc3ccc(F)cc23)C1 (centres unmarked) [Compound 1, N-((1-(6-fluoroquinazolin-4-yl)piperidin-3-yl)methyl)methanesulfonamide] | 44 | 54 | > 100 |  | 
CS(=O)(=O)NCC1CCCN(c2ncnc3cccc(F)c23)C1 (centres unmarked) [Compound 2, N-((1-(5-fluoroquinazolin-4-yl)piperidin-3-yl)methyl)methanesulfonamide] | 13 | 61 | > 100 |  | 
CS(=O)(=O)NCC1CCCN(c2ncnc3c(F)cccc23)C1 (centres unmarked) [Compound 3, N-((1-(8-fluoroquinazolin-4-yl)piperidin-3-yl)methyl)methanesulfonamide] | 4 | 59 | > 100 |  | 
CS(=O)(=O)NCC1CCCN(c2ncnc3cc(F)ccc23)C1 (centres unmarked) [Compound 4, N-((1-(7-fluoroquinazolin-4-yl)piperidin-3-yl)methyl)methanesulfonamide] | 24 | 16 | > 100 |  | 
COc1ccc2ncnc(N3CCCC(CNS(C)(=O)=O)C3)c2c1 (centres unmarked) [Compound 5, N-((1-(6-methoxyquinazolin-4-yl)piperidin-3-yl)methyl)methanesulfonamide] | 30 | 58 | > 100 |  | 
CS(=O)(=O)NCC1CCCN(c2ncnc3cccc(Cl)c23)C1 (centres unmarked) [Compound 6, N-((1-(5-chloroquinazolin-4-yl)piperidin-3-yl)methyl)methanesulfonamide] | 29 | 43 | > 100 |  | 
CS(=O)(=O)NCC1CCCN(c2ncnc3cc(F)c(F)cc23)C1 (centres unmarked) [Compound 7, N-((1-(6,7-difluoroquinazolin-4-yl)piperidin-3-l)methyl)methanesulfonamide] | 40 | 54 | > 100 |  | 
COc1cc2ncnc(N3CCCC(CNS(C)(=O)=O)C3)c2cc1OC (centres unmarked) [Compound 8, N-((1-(6,7-dimethoxyquinazolin-4-yl)piperidin-3-yl)methyl)methanesulfonamide] | 0 | 7 | > 100 |  | 
CS(=O)(=O)NCC1CCCN(c2nc(-c3ccccc3)nc3ccccc23)C1 (centres unmarked) [Compound 9, N-((1-(2-phenylquinazolin-4-yl)piperidin-3-yl)methyl)methanesulfonamide] | 0 | 10 | 71 |  | 
CS(=O)(=O)NCC1CCCN(c2ncnc3c(Cl)cc(F)cc23)C1 (centres unmarked) [Compound 10, N-((1-(8-chloro-6-fluoroquinazolin-4-yl)piperidin-3-yl)methyl)methanesulfonamide] | 23 | 51 | > 100 |  | 
CS(=O)(=O)NCC1CCCN(c2ncnc3cc(C(F)(F)F)ccc23)C1 (centres unmarked) [Compound 12, N-((1-(7-(trifluoromethyl)quinazolin-4-yl)piperidin-3-yl)methyl)methanesulfonamide] | 0 | 13 | > 100 |  | 
CS(=O)(=O)NCC1CCCN(c2ncnc3ccc(C#N)cc23)C1 (centres unmarked) [Compound 13, N-((1-(6-cyanoquinazolin-4-yl)piperidin-3-yl)methyl)methanesulfonamide] | 41 | 1 | 42 |  | 
CS(=O)(=O)NCC1CCCN(c2ncnc3ccc(S(C)(=O)=O)cc23)C1 (centres unmarked) [Compound 14, N-((1-(6-(methylsulfonyl)quinazolin-4-yl)piperidin-3-yl)methyl)methanesulfonamide] | 0 | 24 | > 100 |  | 
CC(C)c1nc(N2CCCC(CNS(C)(=O)=O)C2)c2ccccc2n1 (centres unmarked) [Compound 15, N-((1-(2-isopropylquinazolin-4-yl)piperidin-3-yl)methyl)methanesulfonamide] | 0 | 20 | 73 |  | 
CC(C)Nc1nc(N2CCCC(CNS(C)(=O)=O)C2)c2ccccc2n1 (centres unmarked) [Compound 16, N-((1-(2-(isopropylamino)quinazolin-4-yl)piperidin-3-yl)methyl)methanesulfonamide] | 0 | 33 | > 100 |  | 
CS(=O)(=O)NCC1CCCN(c2nc(N3CCOCC3)nc3ccccc23)C1 (centres unmarked) [Compound 17, N-((1-(2-morpholinoquinazolin-4-yl)piperidin-3-yl)methyl)methanesulfonamide] | 0 | 15 | > 100 |  | 
CS(=O)(=O)NCC1CCCN(c2ncnc3cc(C(=O)O)ccc23)C1 (centres unmarked) [Compound 18, 4-(3-(methylsulfonamidomethyl)piperidin-1-yl)quinazoline-7-carboxylic acid] | 10 | 10 | > 100 |  | 
CS(=O)(=O)NCC1CCCN(c2ncnc3ccc(C(=O)O)cc23)C1 (centres unmarked) [Compound 19, 4-(3-(methylsulfonamidomethyl)piperidin-1-yl)quinazoline-6-carboxylic acid] | 0 | 5 | > 100 |  | 
CS(=O)(=O)NCC1CCCN(c2ncnc3cc(C#N)c(F)cc23)C1 (centres unmarked) [Compound 20, N-((1-(7-cyano-6-fluoroquinazolin-4-yl)piperidin-3-yl)methyl)methanesulfonamide] | 19 | 30 | > 100 |  | 
CS(=O)(=O)NCC1CCCN(c2ncnc3cc(C(N)=O)c(F)cc23)C1 (centres unmarked) [Compound 21, 6-fluoro-4-(3-(methylsulfonamidomethyl)piperidin-1-yl)quinazoline-7-carboxamide] | 0 | 12 | > 100 |  | 
Cc1cc2ncnc(N3CCCC(CNS(C)(=O)=O)C3)c2cc1F (centres unmarked) [Compound 22, N-((1-(6-fluoro-7-methylquinazolin-4-yl)piperidin-3-yl)methyl)methanesulfonamide] | 15 | 34 | > 100 |  | 
CS(=O)(=O)NCC1CCCN(c2ncnc3cc(N4CCOCC4)c(F)cc23)C1 (centres unmarked) [Compound 23, N-((1-(6-fluoro-7-morpholinoquinazolin-4-yl)piperidin-3-yl)methyl)methanesulfonamide] | 0 | 23 | > 100 |  | 
CS(=O)(=O)NCC1CCCN(c2ncnc3ccc(N4CCOCC4)cc23)C1 (centres unmarked) [Compound 24, N-((1-(6-morpholinoquinazolin-4-yl)piperidin-3-yl)methyl)methanesulfonamide] | 20 | 20 | > 100 |  | 
CC(C)(C)C(=O)Nc1ccc2ncnc(N3CCCC(CNS(C)(=O)=O)C3)c2c1 (centres unmarked) [Compound 25, N-(4-(3-(methylsulfonamidomethyl)piperidin-1-yl)quinazolin-6-yl)pivalamide] | 28 | 51 | > 100 |  | 
CS(=O)(=O)NCC1CCCN(c2ncnc3ccc(-c4ncco4)cc23)C1 (centres unmarked) [Compound 26, N-((1-(6-(oxazol-2-yl)quinazolin-4-yl)piperidin-3-yl)methyl)methanesulfonamide] | 2 | 28 | > 100 |  | 
CS(=O)(=O)NCC1CCCN(c2ncnc3cc(F)c(C#N)cc23)C1.Cl (centres unmarked) [Compound 29a, N-((1-(6-cyano-7-fluoroquinazolin-4-yl)piperidin-3-yl)methyl)methanesulfonamide hydrochloride] |  |  |  | 35 | 55
